Reference: patent publication US11840528B2 (Hoffmann-La Roche Inc., priority 2018, dated 2023)

Key:
[1] = target: T1, h-GABA-A α5β3γ2 (Homo sapiens, UniProt P18507+P31644); experiment: [3H]flumazenil competition binding assay, membranes of HEK293 cells expressing GABAA receptors; conditions: displacement of [3H]-Flumazenil 0.5 nM, HEK293 cells expressing human receptors, mean of two determinations; Table 1
Procedure, shortened: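 Receptor source: human α5β3γ2 transiently transfected into HEK293 cells, membranes in pH 7.5 Krebs-tris. Filtration through GF/C, then scintillation counting.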

[2] = target: T1, h-GABA-A α5β3γ2; experiment: Two-electrode voltage clamp electrophysiology in Xenopus laevis oocytes expressing GABAA receptors, modulation of GABA EC20 current; assay type: cell-based; set-up: host or cells: Xenopus laevis oocytes micro-injected with RNA transcripts of the subunits; conditions: Table 1; for Efficacy (GABA) %: % modulation of GABA EC20 = 100*(Fold increase-1); for Fold increase h-GABA-A α5β3γ2 oocyte: test compound at approx. 30 fold its Ki, GABA at EC20
Procedure, shortened: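 Modulation is reported as % of the GABA EC20 current, calculated as 100*(Fold increase−1) from the peak ratio between a second GABA response carrying compound (applied at roughly 30-fold Ki) and a preceding control response. Oocytes expressing human α5β3γ2 were clamped at −80 mV at room temperature, 3–5 days after injection.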

| Ki [1] | Efficacy (GABA) % [2] | Fold increase h-GABA-A α5β3γ2 oocyte [2] | Compound |
| --- | --- | --- | --- |
| 8.3 nM | 74% | 1.74 | COc1cc(-c2cnn(Cc3c(-c4ccc(Cl)nc4)noc3C)c(=O)c2)ccn1 [Example 214, 2-((3-(6-chloropyridin-3-yl)-5-methylisoxazol-4-yl)methyl)-5-(2-methoxypyridin-4-yl)pyridazin-3(2H)-one] |
| 1.2 nM | 101% | 2.01 | Cc1ccc(-c2noc(C)c2Cn2ncc(N3CC(OCC(F)F)C3)cc2=O)nn1 [Example 306, 5-(3-(2,2-difluoroethoxy)azetidin-1-yl)-2-((5-methyl-3-(6-methylpyridazin-3-yl)isoxazol-4-yl)methyl)pyridazin-3(2H)-one] |
| 25.8 nM | 155% | 2.55 | Cc1onc(-c2ccc(Cl)nc2)c1Cn1ncc(N2CC(OC(C)C(F)(F)F)C2)cc1=O (single isomer, unassigned) [Example 265] |
| 2.6 nM | 247% | 3.47 | Cc1onc(-c2ccc(Cl)nc2)c1Cn1ncc(N2C[C@@H](C)O[C@@H](C)C2)cc1=O [Example 219, 2-((3-(6-chloropyridin-3-yl)-5-methylisoxazol-4-yl)methyl)-5-((2RS,6SR)-2,6-dimethylmorpholino)pyridazin-3(2H)-one] |
| 40.2 nM | 167% | 2.67 | C[C@@H]1CN(c2cnn(Cc3conc3-c3ccc(C(F)(F)F)nc3)c(=O)c2)C[C@H](C)O1 [Example 72, 5-(cis-2,6-dimethylmorpholin-4-yl)-2-[[3-[6-(trifluoromethyl)-3-pyridyl]isoxazol-4-yl]methyl]pyridazin-3-one] |
| 2 nM | 131% | 2.31 | CO[C@H]1CN(c2cnn(Cc3c(-c4ccc(C)nc4)noc3C)c(=O)c2)[C@H]1C [Example 197, 5-[(2S,3S)-3-methoxy-2-methyl-azetidin-1-yl]-2-[[5-methyl-3-(6-methyl-3-pyridyl)isoxazol-4-yl]methyl]pyridazin-3-one] |
| 1.9 nM | 164% | 2.64 | Cc1ccc(-c2noc(C)c2Cn2ncc(N3CCC4(CC3)CC(F)CCO4)cc2=O)nn1 (single isomer, unassigned) [Example 326] |
| 29.7 nM | 133% | 2.33 | COc1cc(-c2cnn(Cc3c(-c4ccc(C)nc4)noc3C)c(=O)c2)cnc1OC [Example 179, 5-(5,6-dimethoxypyridin-3-yl)-2-((5-methyl-3-(6-methylpyridin-3-yl)isoxazol-4-yl)methyl)pyridazin-3(2H)-one] |
| 1.4 nM | 228% | 3.28 | Cc1ccc(-c2noc(C)c2Cn2ncc(N3C[C@H](C)O[C@@H](C)C3)cc2=O)cn1 (single isomer, unassigned) [Example 29, 5-[(2S,6S)-2,6-dimethylmorpholin-4-yl]-2-[[5-methyl-3-(6-methyl-3-pyridyl)isoxazol-4-yl]methyl]pyridazin-3-one or enantiomer] |
| 5.9 nM | 126% | 2.26 | COc1cc(-c2cnn(Cc3c(-c4ccc(C)nc4)noc3C)c(=O)c2)c(F)cn1 [Example 191, 5-(5-fluoro-2-methoxypyridin-4-yl)-2-((5-methyl-3-(6-methylpyridin-3-yl)isoxazol-4-yl)methyl)pyridazin-3(2H)-one] |
| 14.3 nM | 93% | 1.93 | Cc1ccc(-c2noc(C)c2Cn2ncc(N3CC4(C[C@H](F)CO4)C3)cc2=O)cn1 [Example 201, 5-[(7S)-7-fluoro-5-oxa-2-azaspiro[3.4]octan-2-yl]-2-[[5-methyl-3-(6-methyl-3-pyridyl)isoxazol-4-yl]methyl]pyridazin-3-one] |
| 31.2 nM | 99% | 1.99 | CCn1cc(-c2cnn(Cc3c(-c4ccc(Cl)nc4)noc3C)c(=O)c2)cn1 [Example 221, 2-((3-(6-chloropyridin-3-yl)-5-methylisoxazol-4-yl)methyl)-5-(1-ethyl-1H-pyrazol-4-yl)pyridazin-3(2H)-one] |
| 24.6 nM | 107% | 2.07 | Cc1onc(-c2ccc(Cl)nc2)c1Cn1ncc(N2CCC3(CCOCC3)CC2)cc1=O [Example 248, 2-((3-(6-chloropyridin-3-yl)-5-methylisoxazol-4-yl)methyl)-5-(3-oxa-9-azaspiro[5.5]undecan-9-yl)pyridazin-3(2H)-one] |
| 19.5 nM | 119% | 2.19 | Cc1ccc(-c2noc(C)c2Cn2ncc(N3CC4(C[C@@H](O)CO4)C3)cc2=O)cn1 [Example 132, 5-[(7R)-7-hydroxy-5-oxa-2-azaspiro[3.4]octan-2-yl]-2-[[5-methyl-3-(6-methyl-3-pyridyl)isoxazol-4-yl]methyl]pyridazin-3-one] |
| 27.8 nM | 144% | 2.44 | Cc1onc(-c2ccc(Cl)nc2)c1Cn1ncc(N2CCC3(CCO3)CC2)cc1=O [Example 270, 2-((3-(6-chloropyridin-3-yl)-5-methylisoxazol-4-yl)methyl)-5-(1-oxa-7-azaspiro[3.5]nonan-7-yl)pyridazin-3(2H)-one] |
| 22.9 nM | 110% | 2.1 | Cc1ccc(-c2noc(C)c2Cn2ncc(N(C)C3CN(C4CC4)C3)cc2=O)cn1 [Example 137, 5-((1-cyclopropylazetidin-3-yl)(methyl)amino)-2-((5-methyl-3-(6-methylpyridin-3-yl)isoxazol-4-yl)methyl)pyridazin-3(2H)-one] |
| 26.4 nM | 121% | 2.21 | Cc1onc(-c2ccc(C(F)(F)F)nc2)c1Cn1ncc(N2CCN(C3CC3)CC2)cc1=O [Example 66, 5-(4-cyclopropylpiperazin-1-yl)-2-[[5-methyl-3-[6-(trifluoromethyl)-3-pyridyl]isoxazol-4-yl]methyl]pyridazin-3-one] |
| 10.8 nM | 152% | 2.52 | CO[C@@H]1CN(c2cnn(Cc3c(-c4ccc(C)nc4)noc3C)c(=O)c2)[C@@H]1C [Example 194, 5-[(2R,3R)-3-methoxy-2-methyl-azetidin-1-yl]-2-[[5-methyl-3-(6-methyl-3-pyridyl)isoxazol-4-yl]methyl]pyridazin-3-one] |
| 4.9 nM | 68% | 1.68 | Cc1ccc(-c2noc(C)c2Cn2ncc(N3CC4(CC(C)CCO4)C3)cc2=O)nn1 (single isomer, unassigned) [Example 317] |
| 0.6 nM | 136% | 2.36 | Cc1ccc(-c2noc(C)c2Cn2ncc(N3C[C@H]4CC[C@@H](C3)O4)cc2=O)cn1 [Example 28, 2-[[5-methyl-3-(6-methyl-3-pyridyl)isoxazol-4-yl]methyl]-5-[(1R,5S)-8-oxa-3-azabicyclo[3.2.1]octan-3-yl]pyridazin-3-one] |
| 8.5 nM | 62% | 1.62 | COC1CN(c2cnn(Cc3c(-c4cc(C)on4)noc3C)c(=O)c2)C1 [Example 140, 5-(3-methoxyazetidin-1-yl)-2-[[5-methyl-3-(5-methylisoxazol-3-yl)isoxazol-4-yl]methyl]pyridazin-3-one] |
| 3.6 nM | 104% | 2.04 | Cc1ccc(-c2noc(C)c2Cn2ncc(N3CCNCC3)cc2=O)cn1 [Example 75, 2-[[5-methyl-3-(6-methyl-3-pyridyl)isoxazol-4-yl]methyl]-5-piperazin-1-yl-pyridazin-3-one] |
| 18.1 nM | 134% | 2.34 | Cc1ccc(-c2noc(C)c2Cn2ncc(N3CC(C#N)C3)cc2=O)cn1 [Example 85, 1-[1-[[5-methyl-3-(6-methyl-3-pyridyl)isoxazol-4-yl]methyl]-6-oxo-pyridazin-4-yl]azetidine-3-carbonitrile] |
| 38.8 nM | 140% | 2.4 | Cc1onc(-c2ccc(C(F)(F)F)nc2)c1Cn1ncc(N2CC(OCC(F)F)C2)cc1=O [Example 244, 5-[3-(2,2-difluoroethoxy)azetidin-1-yl]-2-[[5-methyl-3-[6-(trifluoromethyl)-3-pyridyl]isoxazol-4-yl]methyl]pyridazin-3-one] |
| 4.2 nM | 96% | 1.96 | CNc1cc(-c2cnn(Cc3c(-c4ccc(C)nc4)noc3C)c(=O)c2)ccn1 [Example 202, 2-((5-methyl-3-(6-methylpyridin-3-yl)isoxazol-4-yl)methyl)-5-(2-(methylamino)pyridin-4-yl)pyridazin-3(2H)-one] |

| Compound | Ki [1] | Efficacy (GABA) % [2] | Fold increase h-GABA-A α5β3γ2 oocyte [2] |
| --- | --- | --- | --- |
| Cc1onc(-c2ccc(Cl)nc2)c1Cn1ncc(N2CC(OC3CCC3)C2)cc1=O [Example 253, 2-((3-(6-chloropyridin-3-yl)-5-methylisoxazol-4-yl)methyl)-5-(3-cyclobutoxyazetidin-1-yl)pyridazin-3(2H)-one] | 31 nM | 156% | 2.56 |
